Results: the NIST ThermoML archive (doi:10.1016/j.tca.2009.05.015)
± gives the expanded uncertainty stated by the source.

Details: 293 K; 101.33 kPa; Crystal; X-ray diffraction

## CCCCCCCCCCCCN.Cl [dodecanamine hydrochloride]
  mass density: 1022 ± 2 kg/m3
